Results taken from ChEMBL document CHEMBL1124164, “Synthesis and estrogen receptor selectivity of 1,1-bis(4-hydroxyphenyl)-2-(p-halophenyl)ethylenes” (J Med Chem, 1988).

Experiments:
[1] = molecular target: T1, Estrogen receptor (Rattus norvegicus, UniProt P06211+Q62986); experiment: In vitro displacement of [3H]estradiol from estrogen receptor of rat uterine cystol; type: protein assay
[2] = system: Rattus norvegicus; experiment: Distribution of radiolabeled compound in intestinal contents of rat 1 hr after ip administration of dose; fmol equivalents per 100 mg; type: ADME, organism-based; details: in vivo
[3] = system: Rattus norvegicus; experiment: Distribution of radiolabeled compound in liver of rat 4 hr after ip administration of dose; fmol equivalents per 100 mg; type: ADME, organism-based; details: in vivo
[4] = molecular target: T2, Estrogen receptor (Rattus norvegicus) (UniProt P06211+Q62986); details: Uterus, Cytosol
[5] = system: Rattus norvegicus; experiment: Distribution of radiolabeled compound in plasma of rat 1 hr after iv administration of dose; fmol equivalents per 100 mg; type: ADME, organism-based; details: in vivo
[6] = molecular target: T2, Estrogen receptor (Rattus norvegicus); details: Uterus, Cytosol; remark: listed apart in the source
Description: Non specific binding to estrogen receptor in rat uterine cytosol using unlabeled ligand

[7] = molecular target: T2, Estrogen receptor (Rattus norvegicus); experiment: Ratio of specific binding to non-specific binding at rat estrogen receptor; type: protein assay
[8] = system: Rattus norvegicus; experiment: Distribution of radiolabeled compound in plasma of rat 1 hr after ip administration of dose and excess 8 microg of estradiol; fmol equivalents per 100 mg; type: ADME, organism-based; details: in vivo
[9] = species on record: Rattus norvegicus; experiment: Relative recovery of 3H associated with compound from rat plasma; type: ADME, organism-based
[10] = system: Rattus norvegicus; experiment: Distribution of radiolabeled compound in liver of rat 1 hr after ip administration of dose; fmol equivalents per 100 mg; type: ADME, organism-based; details: in vivo
[11] = species on record: Rattus norvegicus; experiment: Relative recovery of 3H associated with compound from rat Intestinal contents; type: ADME, organism-based; details: in vivo
[12] = system: Rattus norvegicus; experiment: Distribution of radiolabeled compound in liver of rat 8 hr after ip administration of dose; fmol equivalents per 100 mg; type: ADME, organism-based; details: in vivo
[13] = system: Rattus norvegicus; experiment: Distribution of radiolabeled compound in intestinal contents of rat 1 hr after iv administration of dose; fmol equivalents per 100 mg; type: ADME, organism-based; details: in vivo
[14] = species on record: Rattus norvegicus; experiment: Effect of Beta Glucuronidase on recovery of 3H associated with compound from rat uterus; type: ADME, organism-based; details: in vivo
[15] = system: Rattus norvegicus; experiment: Distribution of radiolabeled compound in liver of rat 1 hr after iv administration of dose; fmol equivalents per 100 mg; type: ADME, organism-based; details: in vivo
[16] = system: Rattus norvegicus; experiment: Distribution of radiolabeled compound in intestinal contents of rat 4 hr after ip administration of dose; fmol equivalents per 100 mg; type: ADME, organism-based; details: in vivo
[17] = system: Rattus norvegicus; experiment: Distribution of radiolabeled compound in plasma of rat 1 hr after ip administration of dose; type: ADME, organism-based; details: in vivo
[18] = species on record: Rattus norvegicus; experiment: Effect of Beta Glucuronidase on recovery of 3H associated with compound from rat liver; type: ADME, organism-based; details: in vivo
[19] = species on record: Rattus norvegicus; experiment: Effect of Beta Glucuronidase on recovery of 3H associated with compound from rat plasma; type: ADME, organism-based
[20] = system: Rattus norvegicus; experiment: Distribution of radiolabeled compound in plasma of rat 4 hr after ip administration of dose; fmol equivalents per 100 mg; type: ADME, organism-based; details: in vivo
[21] = species on record: Rattus norvegicus; experiment: Relative recovery of 3H associated with compound from rat uterus; type: ADME, organism-based; details: in vivo
[22] = system: Rattus norvegicus; experiment: Distribution of radiolabeled compound in uterus of rat 8 hr after ip administration of dose; fmol equivalents per 100 mg; type: ADME, organism-based; details: in vivo
[23] = molecular target: T1, Estrogen receptor
Description: In vitro displacement of 3 nM [3H]4-hydroxytamoxifen from estrogen receptor of rat uterine cystol

[24] = system: Rattus norvegicus; experiment: Distribution of radiolabeled compound in intestinal contents of rat 8 hr after ip administration of dose; fmol equivalents per 100 mg; type: ADME, organism-based; details: in vivo
[25] = system: Rattus norvegicus; experiment: Distribution of radiolabeled compound in liver of rat 1 hr after ip administration of dose and excess 8 microg of estradiol; fmol equivalents per 100 mg; type: ADME, organism-based; details: in vivo
[26] = system: Rattus norvegicus; experiment: Distribution of radiolabeled compound in uterus of rat 1 hr after ip administration of dose and excess 8 microg of estradiol; fmol equivalents per 100 mg; type: ADME, organism-based; details: in vivo
[27] = species on record: Rattus norvegicus; experiment: Relative recovery of 3H associated with compound from rat liver; type: ADME, organism-based; details: in vivo
[28] = system: Rattus norvegicus; experiment: Distribution of radiolabeled compound in intestinal contents of rat 1 hr after ip administration of dose and excess 8 microg of estradiol; fmol equivalents per 100 mg; type: ADME, organism-based; details: in vivo
[29] = species on record: Rattus norvegicus; experiment: Effect of Beta Glucuronidase on recovery of 3H associated with compound from rat intestinal contents; type: ADME, organism-based; details: in vivo
[30] = system: Rattus norvegicus; experiment: Distribution of radiolabeled compound in uterus of rat 1 hr after iv administration of dose; fmol equivalents per 100 mg; type: ADME, organism-based; details: in vivo
[31] = system: Rattus norvegicus; experiment: Distribution of radiolabeled compound in uterus of rat 1 hr after ip administration of dose; fmol equivalents per 100 mg; type: ADME, organism-based; details: in vivo
[32] = system: Rattus norvegicus; experiment: Distribution of radiolabeled compound in plasma of rat 8 hr after ip administration of dose; fmol equivalents per 100 mg; type: ADME, organism-based; details: in vivo
[33] = system: Rattus norvegicus; experiment: Distribution of radiolabeled compound in uterus of rat 4 hr after ip administration of dose; fmol equivalents per 100 mg; type: ADME, organism-based; details: in vivo
[34] = molecular target: T2, Estrogen receptor (Rattus norvegicus)
Description: Non specific binding to estrogen receptor in rat uterine cytosol(+/-SD)

[35] = molecular target: T2, Estrogen receptor (Rattus norvegicus); remark: listed apart in the source
Description: Specific binding to estrogen receptor in rat uterine cytosol(+/-SD)

[36] = molecular target: T2, Estrogen receptor (Rattus norvegicus); remark: listed apart in the source

## Oc1ccc(C(=Cc2ccc(Br)cc2)c2ccc(O)cc2)cc1
[1]
  EC50: 10.4 nM

## Oc1ccc(C(=Cc2ccc(F)cc2)c2ccc(O)cc2)cc1
[2]
  Distribution: 2360 fM/mg
[3]
  Distribution: 97 fM/mg
[1]
  EC50: 2.9 nM
[4]
  Binding: 971 fM uterus-1
[5]
  Distribution: 144 fM/mg
[6]
  Binding: 305 fM uterus-1
[7]
  S/N: 3.2
[8]
  Distribution: 198 fM/mg
[9]
  Recovery: 28.7%
[10]
  Distribution: 251 fM/mg
[11]
  Recovery: 5.3%
[12]
  Distribution: 61 fM/mg
[13]
  Distribution: 3269 fM/mg
[14]
  Recovery: 95.9%
[15]
  Distribution: 318 fM/mg
[16]
  Distribution: 834 fM/mg
[17]
  Distribution: 122 fM/mg
[18]
  Recovery: 75.9%
[19]
  Recovery: 92.1%
[20]
  Distribution: 56 fM/mg
[21]
  Recovery: 84.5%
[22]
  Distribution: 87 fM/mg
[23]
  EC50: 170 nM
[24]
  Distribution: 665 fM/mg
[25]
  Distribution: 373 fM/mg
[26]
  Distribution: 302 fM/mg
[27]
  Recovery: 15.7%
[28]
  Distribution: 880 fM/mg
[29]
  Recovery: 95.4%
[30]
  Distribution: 429 fM/mg
[31]
  Distribution: 496 fM/mg
[32]
  Distribution: 46 fM/mg
[33]
  Distribution: 196 fM/mg

## Oc1ccc(C(=Cc2ccccc2)c2ccc(O)cc2)cc1
[1]
  EC50: 3.2 nM

## CCC(=C(c1ccc(O)cc1)c1ccc(OCCN(C)C)cc1)c1ccccc1
[34]
  Binding: 475 fM uterus-1
[35]
  Binding: 1080 fM uterus-1
[23]
  EC50: 6 nM
[36]
  S/N: 2.3

## Oc1ccc(C(=C(Cl)c2ccccc2)c2ccc(O)cc2)cc1
[1]
  EC50: 4.5 nM

## Oc1ccc(C(=Cc2ccc(I)cc2)c2ccc(O)cc2)cc1
[1]
  EC50: 3.3 nM
[23]
  EC50: 9.5 nM
